Measured values taken from ChEMBL document CHEMBL6087456 (J Med Chem, 2025).
pEC50, pIC50: −log10 of the molar value. ≈ marks a conversion by molar mass, not a printed value.

Legend:
[1] = Drug excretion in Sprague-Dawley rat urine at 1 mg/kg, iv; format: ADME, organism-based; conditions: read-out: Drug excretion
[2] = molecular target: T1, Cytochrome P450 2C8 (Homo sapiens, UniProt P10632); assay: Inhibition of CYP2C8 in human liver microsomes; format: ADME, Microsome
T1 sequence (P10632 whole entry): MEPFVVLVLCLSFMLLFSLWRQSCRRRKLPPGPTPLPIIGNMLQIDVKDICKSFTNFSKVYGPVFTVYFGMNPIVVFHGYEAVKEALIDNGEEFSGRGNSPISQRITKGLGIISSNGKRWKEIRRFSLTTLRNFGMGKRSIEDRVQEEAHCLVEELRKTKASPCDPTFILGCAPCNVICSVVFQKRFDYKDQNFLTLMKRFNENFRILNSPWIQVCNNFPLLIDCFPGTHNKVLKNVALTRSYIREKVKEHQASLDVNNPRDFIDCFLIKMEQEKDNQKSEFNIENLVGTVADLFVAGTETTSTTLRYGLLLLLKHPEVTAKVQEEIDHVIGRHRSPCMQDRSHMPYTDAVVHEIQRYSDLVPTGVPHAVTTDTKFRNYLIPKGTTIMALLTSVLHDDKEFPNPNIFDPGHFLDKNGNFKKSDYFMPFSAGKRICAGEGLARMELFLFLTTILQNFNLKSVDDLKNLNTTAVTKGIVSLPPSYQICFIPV

[3] = tested on: Plasmodium falciparum; assay: Antiparasitic activity against asexual blood stage Plasmodium falciparum 3D7 incubated for 72 hrs by SYBR Green assay; format: functional, organism-based; conditions: 3D7, 72 h
[4] = tested on: Plasmodium falciparum; assay: Antiparasitic activity against Plasmodium falciparum 3D7 assessed as lag time before killing at 10 times EC50 pretreated for 120 hrs followed by compound removal and replacement of media without compound measured after 28 days by cell killing assay; format: functional
[5] = Cytotoxicity against human HepG2 cells by Cell Titer Glo assay; format: toxicity, cell-based
[6] = Protein binding in human hepatocytes; format: ADME, cell-based, Hepatocyte; conditions: read-out: PB (converted)
[7] = Half life in overnight-fasted male Sprague-Dawley rat at 3 mg/kg, po or 1 mg/kg, iv measured upto 72 hrs by LCMS analysis; format: ADME, organism-based; conditions: in vivo
[8] = molecular target: Albumin (Homo sapiens, UniProt P02768); assay: Protein binding to albumin (unknown origin) in ALBUMAX medium; format: ADME; conditions: read-out: PB (converted)
[9] = molecular target: Cytochrome P450 3A4 (Homo sapiens, UniProt P08684); assay: Inhibition of CYP3A4 in human liver microsomes; format: ADME, Microsome
[10] = tested on: Plasmodium falciparum; assay: Antiparasitic activity against Plasmodium falciparum 3D7 assessed as parasitic reduction ratio at 10 times EC50 pretreated for 120 hrs followed by compound removal and replacement of media without compound measured after 28 days by cell killing assay; format: functional
[11] = Plasma protein binding in human measured for 6 hrs by rapid equilibrium dialysis; format: ADME, cell-free
[12] = molecular target: Cytochrome P450 2D6 (Homo sapiens, UniProt P10635); assay: Inhibition of CYP2D6 in human liver microsomes; format: ADME, Microsome
[13] = Kinetic solubility of compound at pH 6.5 measured after 30 mins by nephelometry; format: physicochemical; conditions: buffer, pH 6.5, read-out: Kinetic_solubility
[14] = Plasma protein binding in rat measured for 6 hrs by rapid equilibrium dialysis; format: ADME, cell-free
[15] = molecular target: T2, Cytochrome P450 2B6 (Homo sapiens, UniProt P20813); assay: Inhibition of CYP2B6 in human liver microsomes; format: ADME, Microsome
T2 sequence (P20813 whole entry): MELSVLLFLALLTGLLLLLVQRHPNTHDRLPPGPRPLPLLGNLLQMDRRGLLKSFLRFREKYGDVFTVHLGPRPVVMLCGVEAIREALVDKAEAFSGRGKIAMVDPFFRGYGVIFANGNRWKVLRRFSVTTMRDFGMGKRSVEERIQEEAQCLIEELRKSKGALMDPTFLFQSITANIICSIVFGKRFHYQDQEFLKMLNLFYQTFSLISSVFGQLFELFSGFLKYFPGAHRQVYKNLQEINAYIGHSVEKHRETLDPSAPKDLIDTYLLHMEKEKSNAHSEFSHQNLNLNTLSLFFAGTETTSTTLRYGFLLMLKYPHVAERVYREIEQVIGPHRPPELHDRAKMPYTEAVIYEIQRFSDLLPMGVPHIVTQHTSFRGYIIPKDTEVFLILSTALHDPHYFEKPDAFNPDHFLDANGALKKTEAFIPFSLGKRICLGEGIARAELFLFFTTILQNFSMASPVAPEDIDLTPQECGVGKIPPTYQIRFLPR

[16] = Metabolic stability in human liver microsomes assessed as intrinsic clearance at 0.5 uM incubated for 60 mins in presence of NADPH by tandem quadrupole-Time of Flight MS; format: ADME, Microsome; conditions: 1 h
[17] = Oral absorption in overnight-fasted male Sprague-Dawley rat at 3 mg/kg measured upto 72 hrs by LCMS analysis; format: ADME, organism-based; conditions: in vivo
[18] = molecular target: T3, Cytochrome P450 1A2 (Homo sapiens, UniProt P05177); assay: Inhibition of CYP1A2 in human liver microsomes; format: ADME, Microsome
T3 sequence (P05177 whole entry): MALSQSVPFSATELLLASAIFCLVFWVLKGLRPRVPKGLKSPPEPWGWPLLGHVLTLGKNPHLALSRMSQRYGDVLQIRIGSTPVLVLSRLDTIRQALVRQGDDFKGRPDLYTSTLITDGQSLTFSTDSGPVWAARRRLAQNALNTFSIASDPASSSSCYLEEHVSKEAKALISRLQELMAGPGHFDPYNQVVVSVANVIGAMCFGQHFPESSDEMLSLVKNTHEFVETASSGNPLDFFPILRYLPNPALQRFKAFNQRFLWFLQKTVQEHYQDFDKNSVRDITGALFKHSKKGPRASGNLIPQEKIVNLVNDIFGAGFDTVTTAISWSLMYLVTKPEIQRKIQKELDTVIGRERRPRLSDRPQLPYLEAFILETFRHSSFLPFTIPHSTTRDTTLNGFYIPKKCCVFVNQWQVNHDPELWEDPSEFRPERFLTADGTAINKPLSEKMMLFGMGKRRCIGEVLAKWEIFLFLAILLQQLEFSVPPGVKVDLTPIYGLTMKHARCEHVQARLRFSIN

[19] = Oral bioavailability in overnight-fasted male Sprague-Dawley rat at 3 mg/kg measured upto 72 hrs by LCMS analysis; format: ADME, organism-based; conditions: in vivo
[20] = Cytotoxicity against human Jurkat cells by Cell Titer Glo assay; format: toxicity, cell-based
[21] = Volume of distribution at steady state in overnight-fasted male Sprague-Dawley rat at 3 mg/kg, po or 1 mg/kg, iv measured upto 72 hrs by LCMS analysis; format: ADME, organism-based; conditions: in vivo
[22] = molecular target: Dihydroorotate dehydrogenase (quinone), mitochondrial (Homo sapiens, UniProt Q02127); assay: Inhibition of C-terminal His6-tagged recombinant human DHODH (29 to 395 residues) N-terminally truncated soluble domain extracted from Escherichia coli phage resistant BL21-DE3 using CoQD/DHA/DCIP as substrates
[23] = molecular target: T4, Dihydroorotate dehydrogenase (quinone), mitochondrial (Plasmodium falciparum (isolate 3D7), UniProt Q08210); assay: Inhibition of N-terminal His6-tagged recombinant Plasmodium falciparum DHODH (158 to 569 residues) N-terminally truncated soluble domain extracted from Escherichia coli phage resistant BL21-DE3 using CoQD/DHA/DCIP as substrates
T4 sequence (Q08210 whole entry): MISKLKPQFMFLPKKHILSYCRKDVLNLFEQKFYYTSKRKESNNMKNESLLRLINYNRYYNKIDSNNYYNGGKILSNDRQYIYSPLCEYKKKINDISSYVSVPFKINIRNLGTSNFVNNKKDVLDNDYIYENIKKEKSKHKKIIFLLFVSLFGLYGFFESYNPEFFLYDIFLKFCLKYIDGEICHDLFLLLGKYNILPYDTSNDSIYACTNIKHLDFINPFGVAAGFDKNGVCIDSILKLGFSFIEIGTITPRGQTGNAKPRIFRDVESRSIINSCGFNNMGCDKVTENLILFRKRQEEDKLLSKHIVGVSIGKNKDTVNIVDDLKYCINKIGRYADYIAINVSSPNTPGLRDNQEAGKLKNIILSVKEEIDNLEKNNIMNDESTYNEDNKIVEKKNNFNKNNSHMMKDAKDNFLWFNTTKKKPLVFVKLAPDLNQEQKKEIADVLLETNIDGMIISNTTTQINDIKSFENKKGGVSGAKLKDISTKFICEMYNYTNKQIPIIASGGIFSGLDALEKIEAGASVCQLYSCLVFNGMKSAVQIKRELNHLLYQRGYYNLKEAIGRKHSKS

[24] = Partition coefficient, log D of compound at pH 7.4 measured after 24 hrs by LCMS analysis; format: physicochemical; conditions: octanol/water, pH 7.4, 24 h
[25] = Metabolic stability in Sprague-Dawley rat hepatocytes assessed as intrinsic clearance at 0.5 uM measured per 0.5 million cells incubated for 240 mins by tandem quadrupole-Time of Flight MS; format: ADME, cell-based, Hepatocyte; conditions: 4 h
[26] = Metabolic stability in human hepatocytes assessed as intrinsic clearance at 0.5 uM measured per 1.5 million cells incubated for 240 mins by tandem quadrupole-Time of Flight MS; format: ADME, cell-based, Hepatocyte; conditions: 4 h
[27] = Ratio of drug concentration in Sprague-Dawley rat brain to plasma at 1 uM measured for 5 to 60 mins by LCMS analysis; format: ADME, cell-free; conditions: time 5-60 min
[28] = Cmax in overnight-fasted male Sprague-Dawley rat at 3 mg/kg, po or 1 mg/kg, iv measured upto 72 hrs by LCMS analysis; format: ADME, organism-based; conditions: in vivo
[29] = Permeability across apical to basal side in human Caco-2 cells; format: ADME, cell-based

Chain of Cytochrome P450 3A4 (P08684 whole entry): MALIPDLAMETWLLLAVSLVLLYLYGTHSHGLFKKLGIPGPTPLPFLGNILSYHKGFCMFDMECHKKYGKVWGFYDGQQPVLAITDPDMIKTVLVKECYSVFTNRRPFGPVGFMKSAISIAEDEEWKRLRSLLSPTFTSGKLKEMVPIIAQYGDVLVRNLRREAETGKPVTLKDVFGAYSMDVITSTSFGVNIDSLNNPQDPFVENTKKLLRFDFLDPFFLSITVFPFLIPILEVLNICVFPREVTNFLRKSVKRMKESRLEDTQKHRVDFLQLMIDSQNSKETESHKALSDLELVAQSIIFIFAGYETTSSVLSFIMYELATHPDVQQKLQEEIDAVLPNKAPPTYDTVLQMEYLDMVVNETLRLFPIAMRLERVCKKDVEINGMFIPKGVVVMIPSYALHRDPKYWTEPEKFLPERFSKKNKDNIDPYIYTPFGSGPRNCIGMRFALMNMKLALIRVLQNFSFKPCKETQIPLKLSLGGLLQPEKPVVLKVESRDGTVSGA
Chain of Cytochrome P450 2D6 (P10635 whole entry): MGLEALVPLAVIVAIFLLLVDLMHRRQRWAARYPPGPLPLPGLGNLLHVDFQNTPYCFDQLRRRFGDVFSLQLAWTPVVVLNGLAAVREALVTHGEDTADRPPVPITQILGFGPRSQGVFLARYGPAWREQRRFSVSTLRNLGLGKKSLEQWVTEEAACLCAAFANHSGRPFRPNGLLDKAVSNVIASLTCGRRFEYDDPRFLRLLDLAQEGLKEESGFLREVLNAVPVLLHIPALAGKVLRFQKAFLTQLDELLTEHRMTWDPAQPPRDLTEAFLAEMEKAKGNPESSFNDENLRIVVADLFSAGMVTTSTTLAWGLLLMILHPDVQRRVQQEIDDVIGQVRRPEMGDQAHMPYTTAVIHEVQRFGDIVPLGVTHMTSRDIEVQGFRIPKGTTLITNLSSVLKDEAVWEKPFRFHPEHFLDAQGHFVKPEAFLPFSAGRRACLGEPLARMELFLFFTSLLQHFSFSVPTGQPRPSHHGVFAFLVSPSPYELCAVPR
Chain of Dihydroorotate dehydrogenase (quinone), mitochondrial (Homo sapiens, UniProt Q02127) (Q02127 whole entry, the tested form may be a part): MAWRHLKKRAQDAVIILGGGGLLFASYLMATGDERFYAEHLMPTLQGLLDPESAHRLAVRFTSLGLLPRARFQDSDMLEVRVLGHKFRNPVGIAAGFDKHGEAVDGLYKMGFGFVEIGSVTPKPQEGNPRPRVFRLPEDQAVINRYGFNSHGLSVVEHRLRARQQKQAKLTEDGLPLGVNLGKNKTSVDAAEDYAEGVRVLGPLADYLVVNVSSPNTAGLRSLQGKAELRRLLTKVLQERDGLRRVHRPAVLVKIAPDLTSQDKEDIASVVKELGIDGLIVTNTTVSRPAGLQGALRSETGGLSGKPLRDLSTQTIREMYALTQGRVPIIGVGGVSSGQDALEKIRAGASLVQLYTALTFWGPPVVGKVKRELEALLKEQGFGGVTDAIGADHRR
Chain of Albumin (P02768 whole entry): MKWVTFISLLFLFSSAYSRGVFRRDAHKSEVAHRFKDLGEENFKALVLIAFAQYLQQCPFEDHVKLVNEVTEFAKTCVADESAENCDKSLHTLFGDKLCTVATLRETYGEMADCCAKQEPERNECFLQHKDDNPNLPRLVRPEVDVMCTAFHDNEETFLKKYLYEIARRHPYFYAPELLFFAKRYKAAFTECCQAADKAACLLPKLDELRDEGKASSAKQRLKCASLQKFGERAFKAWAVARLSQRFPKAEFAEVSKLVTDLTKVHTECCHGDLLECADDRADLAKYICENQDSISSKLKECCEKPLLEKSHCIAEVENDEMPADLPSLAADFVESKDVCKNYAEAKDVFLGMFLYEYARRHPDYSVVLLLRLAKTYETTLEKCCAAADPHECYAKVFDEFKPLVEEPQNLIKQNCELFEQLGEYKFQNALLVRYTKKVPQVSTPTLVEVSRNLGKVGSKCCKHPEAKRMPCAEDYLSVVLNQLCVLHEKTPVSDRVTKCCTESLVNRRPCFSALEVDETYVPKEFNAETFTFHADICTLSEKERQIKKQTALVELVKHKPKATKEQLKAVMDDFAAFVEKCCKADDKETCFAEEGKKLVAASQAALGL

Row | Compound | dose excreted [1] | pEC50 [3] | CC50 [5] | fraction unbound [6] | t1/2 [7] | fraction unbound [8] | pIC50 [9] | log(activity) [10] | PPB [11] | pIC50 [12] | solubility kinetic at 0.5 h [13] | PPB [14] | pIC50 [15] | intrinsic clearance (CLint) [16] | Fa at 72 h [17] | pIC50 [18] | F [19] | CC50 [20] | pIC50 [22] | pIC50 [23] | also measured
1 | Cn1nc2c(=O)n(C3CC3)ncc2c1[C@](N)(c1ccc(C(F)(F)F)c(Cl)c1)C1CC1 | < 1% | 8.15 | > 20 µM | 0.335 | 17 h | 0.239 | < 4.70 | 3.1 | 90.8% | < 4.70 | 12.5 µM (≈ 5.47 µg/mL) | 86% | < 4.70 | < 3 µL/min/mg | 81% | < 4.70 | 79% | > 20 µM |  |  | pIC50 [2]: 5.15; Time [4]: ~26 h
2 | CCn1cc(C)c2c([C@H](O)c3ccc(C(F)(F)F)nc3)n(C)nc2c1=O |  | 7.66 |  |  |  |  |  |  |  |  | 160 µM (≈ 58.6 µg/mL) |  |  | < 3 µL/min/mg |  |  |  |  | < 4.00 | 7.13 | Vdss [21]: 2.76 L/kg
3 | CC[C@@](N)(c1cnc(C(F)(F)F)c(Cl)c1)c1c2ncn(C3CC3)c(=O)c2nn1C | < 1% | 8.15 | > 20 µM | 0.589 |  | 0.703 | < 4.70 |  |  | < 4.70 | 80 µM (≈ 34.1 µg/mL) |  | < 4.70 | < 3 µL/min/mg | 64% | < 4.70 | 79% | > 20 µM | < 4.52 | 7.42 | logD [24]: 3.44
4 | CCn1cc(C2CC2)c2c(Cc3ccc(C(F)(F)F)nc3)n(C)nc2c1=O |  | 7.66 |  |  |  | 0.5 |  |  |  |  | 130 µM (≈ 48.9 µg/mL) |  |  | 9 µL/min/mg | 71% |  | 65% |  | < 4.00 |  | CLH [25]: 2.3 µL/min; CLH [26]: 1.2 µL/min; BPR [27]: 0.65; Cmax [28]: 4.4 µM
5 | CCc1nc(N)nc(N)c1-c1ccc(Cl)cc1 [PYRIMETHAMINE] |  |  |  |  |  |  |  | 3.5 |  |  |  |  |  |  |  |  |  |  |  |  | 
6 | Cn1nc2c(=O)n(C3CC3)ncc2c1[C@](O)(c1cnc(C(F)(F)F)c(Cl)c1)C(F)(F)F | < 1% | 8.52 | > 20 µM | 0.342 | 23 h | 0.319 | < 4.70 |  | 99.1% | < 4.70 | 20 µM (≈ 9.36 µg/mL) | 97.3% | < 4.70 | < 3 µL/min/mg | 94% | < 4.70 | > 100% | > 20 µM | < 4.52 |  | permeability [29]: Permeable
